Assay results: ChEMBL document CHEMBL3045994, “Design, synthesis, and anticonvulsant evaluation of some novel 1, 3 benzothiazol-2-yl hydrazones/acetohydrazones” (Med Chem Res, 2012)

How the values were obtained:
Mus musculus [1] = test: Anticonvulsant activity in Mus musculus albino CF1 (mouse) assessed as protection against 6 Hz psychomotor seizure at 100 mg/kg, ip after 0.5 hr; type: functional; details: route intraperitoneal
Mus musculus [2] = test: Neurotoxicity in Mus musculus albino CF1 (mouse) assessed as motor impairment at 100 mg/kg, ip after 4 hr; type: toxicity, organism-based; set-up: dose 100 mg/kg, route intraperitoneal; details: in vivo
Mus musculus [3] = test: Neurotoxicity in Mus musculus albino CF1 (mouse) assessed as motor impairment at 100 mg/kg, ip after 1 hr; type: toxicity, organism-based; set-up: dose 100 mg/kg, route intraperitoneal; details: in vivo
[4] = Octanol-phosphate buffer partition coefficient, log P of the compound after 24 hr; type: physicochemical
Mus musculus [5] = test: Neurotoxicity in Mus musculus albino CF1 (mouse) assessed as motor impairment at 100 mg/kg, ip after 2 hr; type: toxicity, organism-based; set-up: dose 100 mg/kg, route intraperitoneal; details: in vivo
Mus musculus [6] = test: Anticonvulsant activity in Mus musculus albino CF1 (mouse) assessed as protection against 6 Hz psychomotor seizure at 100 mg/kg, ip after 0.25 hr; type: functional; details: route intraperitoneal
Mus musculus [7] = test: Neurotoxicity in Mus musculus albino CF1 (mouse) assessed as motor impairment at 100 mg/kg, ip after 0.5 hr; type: toxicity, organism-based; set-up: dose 100 mg/kg, route intraperitoneal; details: in vivo
Mus musculus [8] = test: Neurotoxicity in Mus musculus albino CF1 (mouse) assessed as motor impairment at 100 mg/kg, ip after 0.25 hr; type: toxicity, organism-based; set-up: dose 100 mg/kg, route intraperitoneal; details: in vivo
Mus musculus [9] = test: Anticonvulsant activity in Mus musculus albino CF1 (mouse) assessed as protection against 6 Hz psychomotor seizure at 100 mg/kg, ip after 1 hr; type: functional; details: route intraperitoneal
Mus musculus [10] = test: Neurotoxicity in Mus musculus albino CF1 (mouse) assessed as motor impairment at 300 mg/kg, ip up to 4 hr; type: toxicity, organism-based; set-up: dose 300 mg/kg, route intraperitoneal; details: in vivo
Mus musculus [11] = test: Anticonvulsant activity in Mus musculus albino CF1 (mouse) assessed as protection against 6 Hz psychomotor seizure at 100 mg/kg, ip after 4 hr; type: functional; details: route intraperitoneal
Mus musculus [12] = test: Anticonvulsant activity in Mus musculus albino CF1 (mouse) assessed as protection against 6 Hz psychomotor seizure at 100 mg/kg, ip after 2 hr; type: functional; details: route intraperitoneal

O=C(CSc1nc2ccccc2s1)N/N=C1\C(=O)Nc2ccccc21
Activity (Mus musculus [1]): 75%
Activity (Mus musculus [2]): Non-toxic
Activity (Mus musculus [3]): Non-toxic
logP at 24 h [4]: 3.2
Activity (Mus musculus [5]): Non-toxic
Activity (Mus musculus [6]): 0%
Activity (Mus musculus [7]): Non-toxic
Activity (Mus musculus [8]): Non-toxic
Activity (Mus musculus [9]): 0%
Activity (Mus musculus [10]): Non-toxic
Activity (Mus musculus [11]): 0%
Activity (Mus musculus [12]): 0%

C(=N\Nc1nc2ccccc2s1)/c1ccc(Oc2ccc3c(c2)OCO3)cc1
Activity (Mus musculus [1]): 25%
Activity (Mus musculus [2]): Non-toxic
Activity (Mus musculus [3]): Non-toxic
logP at 24 h [4]: 5
Activity (Mus musculus [5]): Non-toxic
Activity (Mus musculus [6]): 0%
Activity (Mus musculus [7]): Non-toxic
Activity (Mus musculus [8]): Non-toxic
Activity (Mus musculus [9]): 0%
Activity (Mus musculus [10]): Non-toxic
Activity (Mus musculus [11]): 0%
Activity (Mus musculus [12]): 0%

O=C(CSc1nc2ccccc2s1)N/N=C/c1ccc(Oc2ccc(Br)cc2)cc1
Activity (Mus musculus [1]): 50%
Activity (Mus musculus [2]): Non-toxic
Activity (Mus musculus [3]): Non-toxic
logP at 24 h [4]: 5.7
Activity (Mus musculus [5]): Non-toxic
Activity (Mus musculus [6]): 0%
Activity (Mus musculus [7]): Non-toxic
Activity (Mus musculus [8]): Non-toxic
Activity (Mus musculus [9]): 75%
Activity (Mus musculus [10]): Non-toxic
Activity (Mus musculus [11]): 0%
Activity (Mus musculus [12]): 0%

Cc1cc(Oc2ccc(/C=N/Nc3nc4ccccc4s3)cc2)ccc1Cl
Activity (Mus musculus [1]): 0%
Activity (Mus musculus [2]): Non-toxic
Activity (Mus musculus [3]): Non-toxic
logP at 24 h [4]: 5.5
Activity (Mus musculus [5]): Non-toxic
Activity (Mus musculus [6]): 25%
Activity (Mus musculus [7]): Non-toxic
Activity (Mus musculus [8]): Non-toxic
Activity (Mus musculus [9]): 0%
Activity (Mus musculus [10]): Non-toxic
Activity (Mus musculus [11]): 0%
Activity (Mus musculus [12]): 0%

Clc1ccc(Oc2ccc(/C=N/Nc3nc4ccccc4s3)cc2)cc1
Activity (Mus musculus [1]): 50%
Activity (Mus musculus [2]): Non-toxic
Activity (Mus musculus [3]): Non-toxic
logP at 24 h [4]: 5.6
Activity (Mus musculus [5]): Non-toxic
Activity (Mus musculus [6]): 0%
Activity (Mus musculus [7]): Non-toxic
Activity (Mus musculus [8]): Non-toxic
Activity (Mus musculus [9]): 0%
Activity (Mus musculus [10]): Non-toxic
Activity (Mus musculus [11]): 0%
Activity (Mus musculus [12]): 25%

Cc1ccc(Oc2ccc(/C=N/Nc3nc4ccccc4s3)cc2)cc1
Activity (Mus musculus [1]): 25%
Activity (Mus musculus [2]): Non-toxic
Activity (Mus musculus [3]): Non-toxic
logP at 24 h [4]: 5.4
Activity (Mus musculus [5]): Non-toxic
Activity (Mus musculus [6]): 25%
Activity (Mus musculus [7]): Non-toxic
Activity (Mus musculus [8]): Non-toxic
Activity (Mus musculus [9]): 0%
Activity (Mus musculus [10]): Non-toxic
Activity (Mus musculus [11]): 0%
Activity (Mus musculus [12]): 0%

O=C(CSc1nc2ccccc2s1)N/N=C/c1ccc(Oc2ccc(Cl)cc2)cc1
Activity (Mus musculus [1]): 0%
Activity (Mus musculus [2]): Non-toxic
Activity (Mus musculus [3]): Non-toxic
logP at 24 h [4]: 5.6
Activity (Mus musculus [5]): Non-toxic
Activity (Mus musculus [6]): 0%
Activity (Mus musculus [7]): Non-toxic
Activity (Mus musculus [8]): Non-toxic
Activity (Mus musculus [9]): 75%
Activity (Mus musculus [10]): Non-toxic
Activity (Mus musculus [11]): 0%
Activity (Mus musculus [12]): 25%

Cc1ccc(Oc2ccc(/C=N/NC(=O)CSc3nc4ccccc4s3)cc2)cc1
logP at 24 h [4]: 5.7
Activity (Mus musculus [10]): Non-toxic

O=C(CSc1nc2ccccc2s1)N/N=C/c1ccc(Oc2ccc3c(c2)OCO3)cc1
logP at 24 h [4]: 5.5
Activity (Mus musculus [10]): Non-toxic

O=C(CSc1nc2ccccc2s1)N/N=C/c1ccc(Oc2ccc(F)cc2)cc1
Activity (Mus musculus [1]): 25%
Activity (Mus musculus [2]): Non-toxic
Activity (Mus musculus [3]): Non-toxic
logP at 24 h [4]: 5.5
Activity (Mus musculus [5]): Non-toxic
Activity (Mus musculus [6]): 50%
Activity (Mus musculus [7]): Non-toxic
Activity (Mus musculus [8]): Non-toxic
Activity (Mus musculus [9]): 0%
Activity (Mus musculus [10]): Non-toxic
Activity (Mus musculus [11]): 0%
Activity (Mus musculus [12]): 0%
